# Reference: patent publication US10352938B2, “Macrocyclic HOPO chelators” (LUMIPHORE, INC., priority 2009, dated 2019)
# Read-outs that look alike come from different tables or passages of the source.
# Columns and labels:
# [1] = Luminescence lifetimes (TRIS buffer, deuterated water, 77K) and inner sphere water number q; conditions: for τ^D / τ (77K): first component; for q: improved Horrock's equations, first species
# Procedure: Fluorescent decay signals can be acquired using an IBH DataStation Hub photon counting module and data analysis performed using the commercially available DAS 6 decay analysis software package from HORIBA Jobin Yvon IBH. Goodness of fit will be assessed by minimizing the reduced chi squared function, χ2, and a visual inspection of the weighted residuals. Each trace will use at least 10,000 points and the reported lifetime values result from at least three independent measurements.
# In addition to the steady state emission spectra, the luminescence quantum yields and luminescence lifetimes of the Eu(III) complexes were also measured in aqueous solution with 0.1 M TRIS buffer pH=7.4 and in deuterated solution to estimate the number of inner sphere water molecule (i.e. q) using the improved Horrock's equations.
# Luminescence lifetimes were also determined at 77K, in a solid matrix (Table 5), which have allowed us to determine whether back energy transfer between the donor triplet excited state and the acceptor manifold excited state of the lanthanide is present, or alternately whether quenching via low lying LMCT state occurs.
# [2] = Triplet excited state energy from phosphorescence of Gd complexes at 77K; format: physicochemical; conditions: solid matrix (methanol/ethanol 1/4), using the Gd complexes
# Procedure: Estimation of the energies of the ligand based triplet excited state were determined using the Gd(III) complexes. Gadolinium was chosen because it is a 4f^7 lanthanide cation having a similar 4f electronic configuration and size as the europium cation (4f^6), but lacking an accessible metal based low energy electronic excited state. At room temperature, only a broad weak emission centered between 380-400 nm can be seen for the Gd(III) complexes. […] At 77K, in solid matrix, an emission band at approx. 500 nm can be seen (FIG. 8). This emission, red-shifted compared to the singlet excited state, can be assigned to phosphorescence from the triplet excited state, lower in energy than the singlet excited state observed at room temperature. Selective time gated phosphorescence spectra (delay 0.1 ms) of the gadolinium complexes at 77K are depicted in FIG. 8.
# [3] = UV/visible absorption spectroscopy of Eu(III) complexes in TRIS buffer; format: physicochemical
# Text: Extinction Coefficient. A series of solutions of varied concentrations will be prepared from the solids based on mass and purity. The absorbance of each of these solutions at both 340 nm and at the appropriate acceptor wavelength will be measured and plotted according to Beer's Law (A=εcL where A is absorbance, ε is the extinction coefficient in M^−1 cm^−1, c is concentration, and L is path length in cm) with the fitted linear regression slope equal to […] on a plot of A as a function of C.
# Each of the spectra have absorption maxima around 335-340 nm (FIG. 2). Those bands are composed of two electronic transitions; at higher energy, a purely π-π* transition and, at slightly lower energy (around ca. 320 nm), a π-π* transition with some n-π* character, as evidenced previously from TD-DFT calculations. […] This interaction gives maxima blue-shifting from 341 nm for [Eu(H(2,2)-1,2-HOPO)]^0 to 334 nm for [Eu(H(17O5,2)-1,2-HOPO)]^0 (as low as 332 nm for)[Eu(5LIN^Me-1,2HOPO)2]^0).
# [4] = Stability titration (pEu) by competitive batch titration using DTPA; format: physicochemical; conditions: for pEu value as compared to DTPA: in words
# Procedure: (§1) Stability Titrations. The general procedure used to determine the pEu values of ligands was adapted from an already described study using Gd and are similar to that already reported for other complexes. Different volumes of a standardized DTPA stock solution were added to solutions of constant ligand, metal, and electrolyte concentrations. Concentrations of complexed ligand in each solution were determined by subtracting the remaining luminescence intensity after addition of DTPA to the initial luminescence intensity at identical pH and those concentrations were used as references for the analysis. Stability of compounds towards mM concentrations of EDTA and divalent cations will be assessed by incubation of the proposed molecules at nM concentration at room temperature in aqueous solutions of test ions. Time Resolved Fluorescent signal will be assessed at the outset of experiment and monitored over a minimum of 24 hours to determine signal change.
# [5] = Luminescence quantum yield, emission and brightness in aqueous 0.1 M TRIS buffer; format: physicochemical; conditions: for øTot: 0.1M TRIS buffer pH = 7.4; for Brightness: at maximum absorption, product of quantum yield and molar absorption coefficient, 0.1 M TRIS pH = 7.4; for overall quantum yield (in words): related to inner-sphere coordinated water
# Procedure: Quantum Yield. Quantum yield will be measured using established methods. Fluorescence quantum yield Q are measured in diluted solution with an optical density lower than 0.1 using the following equation Qx/Qr=[Ar(λr)/Ax(λx)][nx^2/nr^2][Dx/Dr] were A is the absorbance at the excitation wavelength (λ), n the refractive index and D the integrated luminescence intensity. Subscripts “r” and “x” stand for reference and sample, respectively. References will be a quinine bisulfate in 1N sulfuric acid in aqueous solution (Qt=0.546)^1 and Ru(bpy)3 2C1 complexes in water solution (Qr=0.028)^2 for all complexes. A plot of integrated emission intensity (i.e. Dr) versus absorbance (i.e. Ar(λr)) yields a linear plot with a slope which can be equated to the reference quantum yield Qr. By analogy, for the unknown sample, a plot of integrated emission intensity (i.e. Dx) versus absorbance (i.e. Ax(λx)) yields a linear plot and Qx can then be evaluated. A minimum of at least two independent measurements will be averaged to derive a reliable value.
# [6] = cited from earlier work
# [7] = quantum yield; cited from earlier work
# [8] = cited from earlier work; remark: listed apart in the source
# [9] = competitive batch titration using DTPA in 0.1M TRIS pH = 7.4 and 0.1M KCl; cited from earlier work
# [10] = Calculation of Eu luminescence parameters (radiative lifetime, rate constants, efficiencies); format: physicochemical
# Procedure: In this equation, the ηISC ηET term is termed the sensitization efficiency, ηsens (ηsens=ηISC ηET). All the luminescence parameters τR (the pure radiative luminescence lifetime), kR and knR (the radiative and non-radiative constant rate) can be deduced. These parameters were calculated for five of the octadentate complexes and the model complex that present only one species in solution at pH=7.4 and are reported in Table 6.
# [11] = Stability testing in concentrated solutions of divalent cations and EDTA; format: physicochemical; conditions: over 24 hrs
# Procedure: as §1
# Although these conditions represent concentrations that are in excess of those typically encountered in routine commercial use, they are a benchmark used in the high-throughput screening industry to evaluate these types of molecules. For comparison, stability testing of the commercialized Lumi4-Tb compound is shown (FIG. 3, top) and represents the stability benchmark for these types of molecules.
# [12] = listed as [Eu(H(4,2)-1,2HOPO)]^0
# [13] = TRIS buffer pH = 7.4, listed as [Eu(H(4,2)-1,2HOPO)]^0
structure (smiles),measurement,setting,value
O=C(NCCN(CCCCN(CCNC(=O)c1cccc(=O)n1O)CCNC(=O)c1cccc(=O)n1O)CCNC(=O)c1cccc(=O)n1O)c1cccc(=O)n1O [Eu(H4)],τ^D,"[1]; deuterated solution, listed as [Eu(H(4,2)-1,2HOPO)]^0",803; μs
same,"τ^D, second component","[1]; deuterated solution, second component, listed as [Eu(H(4,2)-1,2HOPO)]^0",338 μs
same,q,"[1]; inner sphere water molecules, listed as [Eu(H(4,2)-1,2HOPO)]^0",0;
same,"q, second species","[1]; inner sphere water molecules, second species, listed as [Eu(H(4,2)-1,2HOPO)]^0",1.1
same,τ (77K),"[1]; solid matrix at 77K (methanol/ethanol 1/4), listed as [Eu(H(4,2)-1,2HOPO)]^0",902; μs
same,"τ (77K), second component","[1]; solid matrix at 77K (methanol/ethanol 1/4), second component, listed as [Eu(H(4,2)-1,2HOPO)]^0",645 μs
same,T0-0 (triplet excited state energy),[2]; [12],"22,390 cm^−1"
same,ε,[3]; [13],"17,900 M^−1 · cm^−1"
same,λ^maxabs,[3]; [13],337 nm
same,pEu value as compared to DTPA,[4],decreased
same,øTot,"[5]; listed as [Eu(H(4,2)-1,2-HOPO)]^0",0.031
same,øTot,[5]; [12],0.031
same,Brightness,[5]; [12],555 M⁻¹ cm⁻¹
same,overall quantum yield (in words),[5],low quantum yields
same,τ (D2O),"[6]; D2O, first component where two are printed",803 μs
same,"τ (D2O), second component","[6]; D2O, second component",338 μs
same,τ (H2O),"[6]; H2O, first (longer) component",649 μs
same,"τ (H2O), second component","[6]; H2O, second (shorter) component of biexponential decay",236 μs
same,q,"[6]; number of inner sphere water molecules, first species",0
same,"q, second species","[6]; number of inner sphere water molecules, second species",1.1
same,ϕEu,[7],0.031
same,λ,[8]; absorption maximum,337 nm
same,ε,[8]; extinction coefficient,"17,900 M^1 cm^−1"
same,pEu,[9],18.4
O=C(NCCN(CCNC(=O)c1cccc(=O)n1O)CCOCCOCCOCCN(CCNC(=O)c1cccc(=O)n1O)CCNC(=O)c1cccc(=O)n1O)c1cccc(=O)n1O [Eu(H11-3)],τ,[1]; aqueous TRIS pH = 7.4,668 μs
same,τ^D,[1]; deuterated solution,888 μs
same,τ^D,[1]; deuterated water,888 μs
same,τ,[1]; first (longer) component,668 μs
same,q,[1]; inner sphere water molecules,0.1
same,τ (77K),[1]; solid matrix at 77K (methanol/ethanol 1/4),765 μs
same,T0-0 (triplet excited state energy),[2],"22,120 cm^−1"
same,ε,[3]; TRIS buffer pH = 7.4,"15,070 M^−1 · cm^−1"
same,λ^maxabs,[3]; TRIS buffer pH = 7.4,334 nm
same,λ,[3]; absorption maximum,334 nm
same,ε,"[3]; extinction coefficient, in M-1·cm-1","15,070"
same,pEu,[4]; competitive batch titration using DTPA in 0.1M TRIS pH = 7.4 and 0.1M KCl,20.4
same,pEu value as compared to DTPA,[4],increased
same,øTot,[5],0.165
same,ϕTot,"[5]; aqueous TRIS pH = 7.4, complexes with only one species",0.165
same,quantum yield in aqueous medium,[5]; aqueous medium,17%
same,ϕTot,[5]; aqueous quantum yield,0.165
same,Brightness,[5],2485 M⁻¹ cm⁻¹
same,overall quantum yield (in words),[5],comparatively high quantum yields
same,sensitization process efficiency,[10],40.2%
same,η^Eu,[10]; efficiency of metal centred luminescence,0.411
same,knr,[10]; non-radiative rate constant,882 s⁻¹
same,τrad,"[10]; pure radiative luminescence lifetime, aqueous TRIS pH = 7.4",1630 μs
same,kr,[10]; radiative rate constant,615 s⁻¹
same,η^sens,[10]; sensitization efficiency,0.402
same,signal change in concentrated solutions of divalent cations and EDTA,[11],significant signal loss
